From ChEMBL document CHEMBL5537193, “Multitargeting HDAC Inhibitors Containing a RAS/RAF Protein Interfering Unit” (J Med Chem, 2024)
The source made the active and inactive calls. The rule behind the calls is not given here.

Experiments:
NCI-H1975 = experiment: cells; conditions: Homo sapiens, NCI-H1975, 72 h
Description: Cytotoxicity against human NCI-H1975 cells assessed as inhibition of cell growth incubated for 72 hrs by MTT assay

MCF7 = experiment: cells; conditions: Homo sapiens, MCF7, 72 h
Description: Cytotoxicity against human MCF7 cells assessed as inhibition of cell growth incubated for 72 hrs by MTT assay

A549 = experiment: cells; conditions: Homo sapiens, A549, 72 h
Description: Cytotoxicity against human A549 cells assessed as inhibition of cell growth incubated for 72 hrs by MTT assay

SGC-7901 = experiment: cells; conditions: Homo sapiens, SGC-7901, 72 h
Description: Cytotoxicity against human SGC-7901 cells assessed as inhibition of cell growth incubated for 72 hrs by MTT assay

L02 = experiment: cells; conditions: Homo sapiens, L02, 72 h
Description: Cytotoxicity against human L02 cells assessed as inhibition of cell growth incubated for 72 hrs by MTT assay

HepG2 = experiment: cells; conditions: Homo sapiens, HepG2, 72 h
Description: Cytotoxicity against human HepG2 cells assessed as inhibition of cell growth incubated for 72 hrs by MTT assay

A-431 = experiment: cells; conditions: Homo sapiens, A-431, 72 h
Description: Cytotoxicity against human A-431 cells assessed as inhibition of cell growth incubated for 72 hrs by MTT assay

PANC-1 [1] = experiment: Induction of apoptosis in human PANC-1 cells assessed as increase in cleaved caspase-3 expression level at 2 uM incubated for 24 hrs by Western blot analysis; type: functional, cell-based
PANC-1 [2] = experiment: Induction of apoptosis in human PANC-1 cells assessed as increase in cleaved PARP expression level at 2 uM incubated for 24 hrs by Western blot analysis; type: functional, cell-based
HT-29 = experiment: Induction of apoptosis in human HT-29 cells assessed as apoptotic ratio at 2 uM incubated for 24 hrs by flow cytometric analysis; type: functional
PANC-1 [3] = experiment: Cell cycle arrest in human PANC-1 cells assessed as accumulation of cells at GO-G1 phase at 2 uM incubated for 24 hrs by PI/RNase staining based flow cytometric analysis; type: functional
[4] = target: Serine/threonine-protein kinase PLK1 (Homo sapiens, UniProt P53350); experiment: Inhibition of PLK1 (unknown origin)
PANC-1 [5] = experiment: Induction of apoptosis in human PANC-1 cells assessed as increase in Cytochrome C expression level at 2 uM incubated for 24 hrs by Western blot analysis; type: functional, cell-based
PANC-1 [6] = experiment: Induction of apoptosis in human PANC-1 cells assessed as apoptotic cells at 2 uM incubated for 24 hrs by flow cytometric analysis relative to control; type: functional
PANC-1 [7] = experiment: Induction of apoptosis in human PANC-1 cells assessed as increase in Bax expression at 2 uM incubated for 24 hrs by Western blot analysis; type: functional, cell-based
PANC-1 [8] = experiment: Induction of apoptosis in human PANC-1 cells assessed as increase in cleaved caspase-9 expression level at 2 uM incubated for 24 hrs by Western blot analysis; type: functional, cell-based

Sequence of Serine/threonine-protein kinase PLK1 (P53350 whole entry): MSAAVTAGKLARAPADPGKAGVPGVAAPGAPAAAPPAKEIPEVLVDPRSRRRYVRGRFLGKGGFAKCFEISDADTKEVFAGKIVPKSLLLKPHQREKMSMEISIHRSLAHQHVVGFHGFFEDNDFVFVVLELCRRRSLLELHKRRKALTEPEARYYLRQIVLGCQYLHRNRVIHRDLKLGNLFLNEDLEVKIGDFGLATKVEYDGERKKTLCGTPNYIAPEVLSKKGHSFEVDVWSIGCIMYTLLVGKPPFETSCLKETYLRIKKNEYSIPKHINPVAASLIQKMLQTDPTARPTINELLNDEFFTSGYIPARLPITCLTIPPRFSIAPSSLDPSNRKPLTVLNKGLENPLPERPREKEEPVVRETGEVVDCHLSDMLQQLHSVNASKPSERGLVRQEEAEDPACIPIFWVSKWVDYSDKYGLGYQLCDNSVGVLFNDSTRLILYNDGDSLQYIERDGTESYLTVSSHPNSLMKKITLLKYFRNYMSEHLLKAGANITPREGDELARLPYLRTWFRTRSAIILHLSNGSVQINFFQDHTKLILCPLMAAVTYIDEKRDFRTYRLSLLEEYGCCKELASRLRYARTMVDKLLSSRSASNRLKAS

Question: `COc1cc(OC)c(/C=C/S(=O)(=O)Cc2ccc(OC)c(NC(=O)CCC(=O)Nc3ccccc3N)c2)c(OC)c1` was tested. Which IC50 (NCI-H1975) did it give?
Answer: 2.58 µM

Question: What about the IC50 (MCF7) of the same compound?
Answer: 13.2 µM

Question: And the IC50 (A549)?
Answer: 7.41 µM

Question: What about the IC50 (SGC-7901) of the same compound?
Answer: 6.6 µM

Question: What about the IC50 (L02) of the same compound?
Answer: > 40 µM

Question: And the IC50 (HepG2)?
Answer: 12.3 µM

Question: What about the IC50 (A-431) of the same compound?
Answer: 1.26 µM

Question: `COc1cc(OC)c(/C=C/S(=O)(=O)Cc2ccc(OC)c(NCC(=O)Nc3ccccc3N)c2)c(OC)c1` was tested. Which IC50 (NCI-H1975) did it give?
Answer: 2.18 µM

Question: And the IC50 (MCF7)?
Answer: 4.94 µM

Question: What about the IC50 (A549) of the same compound?
Answer: 3.67 µM

Question: What about the IC50 (SGC-7901) of the same compound?
Answer: 4.98 µM

Question: And the IC50 (L02)?
Answer: > 40 µM

Question: What about the IC50 (HepG2) of the same compound?
Answer: 4.75 µM

Question: What about the IC50 (A-431) of the same compound?
Answer: 4.14 µM

Question: `COc1cc(OC)c(/C=C/S(=O)(=O)Cc2ccc(OC)c(NCCC(=O)Nc3ccccc3N)c2)c(OC)c1` was tested. Which IC50 (NCI-H1975) did it give?
Answer: 5.11 µM

Question: And the IC50 (MCF7)?
Answer: 12.6 µM

Question: And the IC50 (A549)?
Answer: 11.3 µM

Question: What about the IC50 (SGC-7901) of the same compound?
Answer: 13.2 µM

Question: What about the IC50 (L02) of the same compound?
Answer: > 40 µM

Question: What about the IC50 (HepG2) of the same compound?
Answer: 7.3 µM

Question: And the IC50 (A-431)?
Answer: 8.69 µM

Question: What does the source list for `O=C(CCCCCCC(=O)Nc1ccccc1)NO` [VORINOSTAT]?
Answer: Activity (PANC-1 [1]): Active; Activity (PANC-1 [2]): Active; IC50 (SGC-7901): 2.89 µM; Activity (HT-29): 21.4%; Activity (PANC-1 [3]): Active; IC50 [4]: 1.6 µM; Activity (PANC-1 [5]): Active; Activity (PANC-1 [6]): 20.5%; Activity (PANC-1 [7]): Active; Activity (PANC-1 [8]): Active

Question: How did the IC50 (NCI-H1975) turn out when `COc1cc(OC)c(/C=C/S(=O)(=O)Cc2ccc(OC)c(NCCC(=O)NO)c2)c(OC)c1` was run?
Answer: 3.95 µM

Question: And the IC50 (MCF7)?
Answer: 5.45 µM

Question: What about the IC50 (A549) of the same compound?
Answer: 9.35 µM

Question: And the IC50 (SGC-7901)?
Answer: 5.46 µM

Question: And the IC50 (L02)?
Answer: > 40 µM

Question: What about the IC50 (HepG2) of the same compound?
Answer: 15 µM

Question: And the IC50 (A-431)?
Answer: 2.03 µM

Question: Which IC50 (NCI-H1975) does the source give for `COc1cc(OC)c(/C=C/S(=O)(=O)Cc2ccc(OC)c(NC(=O)CCCC(=O)Nc3ccccc3N)c2)c(OC)c1` here?
Answer: 8.45 µM

Question: What about the IC50 (MCF7) of the same compound?
Answer: 17.7 µM

Question: What about the IC50 (A549) of the same compound?
Answer: 35.5 µM

Question: What about the IC50 (SGC-7901) of the same compound?
Answer: 31.9 µM

Question: What about the IC50 (L02) of the same compound?
Answer: > 40 µM

Question: What about the IC50 (HepG2) of the same compound?
Answer: 18.6 µM

Question: What about the IC50 (A-431) of the same compound?
Answer: 4.11 µM
